Results published in paper PMC10247784, “Physiological activation of human and mouse bitter taste receptors by bile acids” (Communications Biology, 2023).
“And” between values parts separate entries of the source, which are not always exact repeats. Equal values may be shown once.

Target: T1, human TAS2R1 (Homo sapiens, UniProt Q9NYW7)
T1 construct: expressed in transfected cells; host or cells: HEK293T-Gα16gust44
T1 sequence (Q9NYW7 1-299): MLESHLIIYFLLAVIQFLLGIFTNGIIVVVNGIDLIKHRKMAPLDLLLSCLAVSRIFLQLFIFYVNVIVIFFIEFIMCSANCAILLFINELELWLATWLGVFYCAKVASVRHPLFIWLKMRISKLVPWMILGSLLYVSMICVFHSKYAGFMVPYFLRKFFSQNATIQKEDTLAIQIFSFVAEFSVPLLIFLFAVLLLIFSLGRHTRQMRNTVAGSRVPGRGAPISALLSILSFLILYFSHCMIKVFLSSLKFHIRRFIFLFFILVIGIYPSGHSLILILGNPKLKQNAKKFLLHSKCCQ
Test: Calcium imaging assay (FLIPR), HEK293T-Gα16gust44 cells transfected with human TAS2R1
Assay type: cell-based
Method in brief: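 Read-out is Fluo-4 fluorescence change (ΔF/F) after automated application of bile acids (DMSO stocks) to transiently transfected cells. Values are corrected for empty-vector cells and normalized to buffer. Dose-response from three independent experiments in duplicate; threshold concentration set at p < 0.01 versus mock.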

With `C[C@H](CCC(=O)NCCS(=O)(=O)O)[C@H]1CC[C@H]2[C@@H]3[C@H](O)C[C@@H]4C[C@H](O)CC[C@]4(C)[C@H]3C[C@H](O)[C@]12C` [Taurocholic Acid, taurocholic acid] the “Efficacy = maximal amplitude (ΔF/F)” value (TAS2R1, bile acids, mean) was 0.09987, the “Efficacy (maximal amplitude ΔF/F), individual data points” value (TAS2R1, bile acids, single replicates, listed as TCA) was 0.08896 and 0.09306 and 0.1176 and the RLU (Time 0 s (second time grid)) was 0 RLU. The RLU (Time 2 s) was 7.952 RLU, the RLU (Time 4 s) was 20.145 RLU and the RLU (Time 6 s) was -3.167 RLU. For the same compound, the RLU (Time 8 s) was -1.092 RLU, the RLU (Time 12 s) was 4.801 RLU and the RLU (Time 14 s) was 10.0652 RLU. The RLU (Time 16 s) was -4.025 RLU, the RLU (Time 18 s) was 30.6672 RLU and the RLU (Time 18.781 s) was -8.288 RLU. The RLU (Time 20.781 s) was 38.1129 RLU, the RLU (Time 22.781 s) was 36.5466 RLU and the RLU (Time 24.781 s) was 100.781 RLU. The RLU (Time 26.781 s) was 94.321 RLU, the RLU (Time 28.781 s) was 128.096 RLU and the RLU (Time 30.781 s) was 168.752 RLU. It also gave an RLU (Time 32.781 s) of 222.063 RLU, an RLU (Time 34.781 s) of 248.838 RLU and an RLU (Time 36.781 s) of 287.098 RLU. For the same compound, the RLU (Time 38.781 s) was 303.962 RLU, the RLU (Time 40.781 s) was 295.88 RLU and the RLU (Time 42.781 s) was 354.401 RLU. The RLU (Time 44.781 s) was 378.941 RLU, the RLU (Time 46.781 s) was 349.497 RLU and the RLU (Time 48.781 s) was 364.135 RLU. For the same compound, the RLU (Time 50.781 s) was 379.282 RLU, the RLU (Time 52.781 s) was 390.659 RLU and the RLU (Time 54.781 s) was 392.471 RLU. For the same compound, the RLU (Time 56.781 s) was 396.221 RLU, the RLU (Time 58.781 s) was 410.391 RLU and the RLU (Time 60.781 s) was 390.107 RLU. The RLU (Time 62.781 s) was 396.638 RLU, the RLU (Time 64.781 s) was 407.599 RLU and the RLU (Time 66.781 s) was 435.147 RLU. The RLU (Time 68.781 s) was 406.802 RLU, the RLU (Time 70.781 s) was 400.242 RLU and the RLU (Time 72.781 s) was 418.773 RLU. The RLU (Time 74.781 s) was 413.176 RLU, the RLU (Time 76.781 s) was 422.764 RLU and the RLU (Time 78.781 s) was 402.418 RLU. It also gave an RLU (Time 80.781 s) of 440.793 RLU, an RLU (Time 82.781 s) of 428.932 RLU and an RLU (Time 84.781 s) of 402.626 RLU. It also gave an RLU (Time 86.781 s) of 438.62 RLU, an RLU (Time 88.781 s) of 435.97 RLU and an RLU (Time 90.781 s) of 417.798 RLU. For the same compound, the RLU (Time 92.781 s) was 396.047 RLU, the RLU (Time 94.781 s) was 416.808 RLU and the RLU (Time 96.781 s) was 401 RLU. For the same compound, the RLU (Time 98.781 s) was 382.662 RLU, the RLU (Time 100.781 s) was 386.609 RLU and the RLU (Time 102.781 s) was 391.574 RLU. For the same compound, the RLU (Time 104.781 s) was 343.693 RLU, the RLU (Time 106.781 s) was 334.229 RLU and the RLU (Time 108.781 s) was 318.822 RLU. It also gave an RLU (Time 110.781 s) of 359.901 RLU, an RLU (Time 112.781 s) of 338.629 RLU and an RLU (Time 114.781 s) of 327.9 RLU. It also gave an RLU (Time 116.781 s) of 308.179 RLU, an RLU (Time 118.781 s) of 311.101 RLU and an RLU (Time 120.781 s) of 314.431 RLU. It also gave an RLU (Time 122.781 s) of 288.825 RLU, an RLU (Time 124.781 s) of 292.111 RLU and an RLU (Time 126.781 s) of 280.428 RLU. It also gave an RLU (Time 128.781 s) of 264.252 RLU, an RLU (Time 130.781 s) of 247.5 RLU and an RLU (Time 132.781 s) of 279.196 RLU. For the same compound, the RLU (Time 134.781 s) was 263.266 RLU, the RLU (Time 136.781 s) was 260.122 RLU and the RLU (Time 137.547 s) was 257.068 RLU. It also gave an RLU (Time 143.547 s) of 228.429 RLU, an RLU (Time 149.547 s) of 221.043 RLU and an RLU (Time 155.547 s) of 204.711 RLU. For the same compound, the RLU (Time 161.547 s) was 175.173 RLU, the RLU (Time 167.547 s) was 178.916 RLU and the RLU (Time 173.547 s) was 141.583 RLU. It also gave an RLU (Time 179.547 s) of 150.852 RLU, an RLU (Time 185.547 s) of 123.705 RLU and an RLU (Time 191.547 s) of 70.5412 RLU. It also gave an RLU (Time 197.547 s) of 46.3148 RLU, an RLU (Time 203.547 s) of 75.6277 RLU and an RLU (Time 209.547 s) of 55.0459 RLU. The RLU (Time 215.547 s) was 35.7219 RLU, the RLU (Time 221.547 s) was 50.9362 RLU and the RLU (Time 227.547 s) was 33.794 RLU. The RLU (Time 233.547 s) was 65.6166 RLU, the RLU (Time 239.547 s) was 27.332 RLU and the RLU (Time 245.547 s) was 17.8718 RLU. It also gave an RLU (Time 293.547 s) of -10.6071 RLU, an RLU (Time 299.547 s) of -16.6248 RLU and an RLU (calcium trace, sheet TAS2R1, Time 305.547 s) of -3.144 RLU. For the same compound, the RLU (calcium trace, sheet TAS2R1, Time 311.547 s) was 2.9951 RLU, the RLU (calcium trace, sheet TAS2R1, Time 317.547 s) was -15.9144 RLU and the RLU (calcium trace, sheet TAS2R1, Time 323.547 s) was -10.1142 RLU. For the same compound, the RLU (calcium trace, sheet TAS2R1, Time 329.547 s) was 11.6208 RLU, the RLU (calcium trace, sheet TAS2R1, Time 335.547 s) was 11.3706 RLU and the RLU (calcium trace, sheet TAS2R1, Time 341.547 s) was 7.052 RLU. It also gave an RLU (calcium trace, sheet TAS2R1, Time 347.547 s) of 31.851 RLU, an RLU (calcium trace, sheet TAS2R1, Time 353.547 s) of 3.282 RLU and an RLU (calcium trace, sheet TAS2R1, Time 359.547 s) of 34.6741 RLU. The “Δ F/F” value (conc. 0,01 mM, TAS2R1) was 0.007126, the “Δ F/F” value (conc. 0,1 mM, TAS2R1) was 0.04642 and the “Δ F/F” value (conc. 0,03 mM, TAS2R1) was 0.01897. The “Δ F/F” value (conc. 0,3 mM, TAS2R1) was 0.09987, the “Δ F/F” value (conc. 0,001 mM, TAS2R1) was 0.004203 and the “Δ F/F” value (conc. 0,003 mM, TAS2R1) was 0.00592. For the same compound, the “Activation threshold concentration TAS2R1” value (lowest concentration with significantly increased fluorescence vs empty vector (p < 0.01)) was 100 µM and 100.00 µM.
